Data reported in patent publication US11040040B2, “Methods of treating cancer” (Corvus Pharmaceuticals, Inc., priority 2017, dated 2021).

Legend:
[1] = Phase 1/1b clinical trial, safety and tolerability (Step 1); type: in vivo, human; conditions: 48 patients treated in Step 1
From the text: FIG. 5 is an illustration of an exemplary Phase 1/1B clinical trial design.
Expansion cohorts include renal cell and non-small cell lung cancer
FIG. 12 provides a summary of data regarding treatment-related adverse events.
(§1) Adenosine signaling via A2A receptor (A2AR) on immune cells suppresses anti-tumor immunity and limits the efficacy of immunotherapy, chemotherapy, CAR-T, and vaccines. […] In embodiments, CD73 expression, CD8 infiltration, TREG distribution, and gene expression signatures are evaluated in serial tumor biopsy specimens.

[2] = tested on: non-small cell lung, melanoma, renal, triple negative breast, and other (bladder, prostate, head and neck, colorectal) tumors; assay: Phase 1/1b clinical trial, clinical activity / tumor regression; type: in vivo, human; conditions: single agent
Protocol: The waterfall plot includes all subjects from the clinical trial with available data, including all dosing levels and disease indications. CT scans of target lesions were performed prior to treatment and every 8 weeks post-treatment or at optimal time points. Target lesions were measured and the sum of longest dimensions (SLD) calculated. Subjects with regression of target tumor lesions are enriched for CD8 infiltration of tumors at baseline. […] The best change in SLD for each subject is shown in the waterfall plot colored by the percentage of CD8 infiltration in the center of the pre-treatment biopsy sample as measured by immunohistochemistry. […] A cutoff of 1% (rather than 4% for FIG. 1A) was used to classify subjects enriched for CD8 infiltration.
There were five prior regimens including TKIs, mTOR inhibitor and nivolumab. The patient ultimately failed each prior therapy.
as §1

syngeneic tumor models = assay: Syngeneic tumor models in mice, daily treatment; type: in vivo; conditions: multiple syngeneic tumor models
Protocol: as §1

adenosine signaling = assay: Functional inhibition of adenosine signaling in cancer patients; type: in vivo, human
Protocol: as §1

[3] = tested on: peripheral T cell receptor repertoire; assay: Deep sequencing of TCRb in PBMCs, Morisita Index and clonality; type: in vivo, human; conditions: subjects with baseline peripheral blood clonality within normal healthy range (<0.2); PBMCs day 0 vs day 28 to 56
Protocol: FIGS. 3A-3C: Peripheral blood mononuclear cells (PBMCs) were collected at day 0 and between day 28 and 56. Deep sequencing of TCRb and Moristia and clonality calculations were performed by Adaptive Biotechnologies (Seattle, Wash., USA). T cell receptor (TCR) repertoire clonality was assessed.
Clonality is a measure of the dominance of specific T cell clones within a sample. It can range from 0-1, with 0 meaning each clone appears only once and 1 meaning the sample has only copies of a single clone. […] Clonality<0.2 is within the normal range, >0.2 means that a few clones dominate the sample. Clonality is conceptually the opposite of diversity. A clonality<0.2 is diverse because there a lot of different clones and the sample is not dominated by one or a few clone.
A Morisita Index score indicates the similarity between two samples. […] The Morisita Index can range from 0-1, with 0 meaning the samples are completely different (no shared clones) and a score of 1 meaning the samples are the same. In embodiments, a Morisita Index score>0.9 means very little change (e.g., within the range of sample to sample variation), while a Morisita Index score<0.9 means there was a change within the sample.

Cc1ccc(-c2nc(N)nc3c2nnn3Cc2cccc(COC3CCOC3)n2)o1 (stereo not shown) [CPI-444]
Grade 3 or 4 treatment related adverse events [1]: 1
tolerability [1]: well tolerated
clinical activity ([2]; including patients who previously failed anti-PD-1 therapy): Evidence of clinical activity
tumor response (FIG. 6, FIGS. 7A-7B) ([2]; nivolumab refractory renal cancer, five prior regimens including TKIs, mTOR inhibitor and nivolumab): tumor regression
inhibition of tumor growth (syngeneic tumor models): dose-dependent inhibition of tumor growth
inhibition of adenosine signaling (adenosine signaling): functional inhibition of adenosine signaling
Morisita Index (change in peripheral TCR repertoire) [3]: < 0.9
